Data published in ChEMBL document CHEMBL1131437, “Resistance-modifying agents. 5. Synthesis and biological properties of quinazolinone inhibitors of the DNA repair enzyme poly(ADP-ribose) polymerase (PARP)” (J Med Chem, 1998).

The compounds below were run against Poly [ADP-ribose] polymerase 1 (Mus musculus, UniProt P11103) (assay: biochemical).
Chain of Poly [ADP-ribose] polymerase 1 (P11103 whole entry): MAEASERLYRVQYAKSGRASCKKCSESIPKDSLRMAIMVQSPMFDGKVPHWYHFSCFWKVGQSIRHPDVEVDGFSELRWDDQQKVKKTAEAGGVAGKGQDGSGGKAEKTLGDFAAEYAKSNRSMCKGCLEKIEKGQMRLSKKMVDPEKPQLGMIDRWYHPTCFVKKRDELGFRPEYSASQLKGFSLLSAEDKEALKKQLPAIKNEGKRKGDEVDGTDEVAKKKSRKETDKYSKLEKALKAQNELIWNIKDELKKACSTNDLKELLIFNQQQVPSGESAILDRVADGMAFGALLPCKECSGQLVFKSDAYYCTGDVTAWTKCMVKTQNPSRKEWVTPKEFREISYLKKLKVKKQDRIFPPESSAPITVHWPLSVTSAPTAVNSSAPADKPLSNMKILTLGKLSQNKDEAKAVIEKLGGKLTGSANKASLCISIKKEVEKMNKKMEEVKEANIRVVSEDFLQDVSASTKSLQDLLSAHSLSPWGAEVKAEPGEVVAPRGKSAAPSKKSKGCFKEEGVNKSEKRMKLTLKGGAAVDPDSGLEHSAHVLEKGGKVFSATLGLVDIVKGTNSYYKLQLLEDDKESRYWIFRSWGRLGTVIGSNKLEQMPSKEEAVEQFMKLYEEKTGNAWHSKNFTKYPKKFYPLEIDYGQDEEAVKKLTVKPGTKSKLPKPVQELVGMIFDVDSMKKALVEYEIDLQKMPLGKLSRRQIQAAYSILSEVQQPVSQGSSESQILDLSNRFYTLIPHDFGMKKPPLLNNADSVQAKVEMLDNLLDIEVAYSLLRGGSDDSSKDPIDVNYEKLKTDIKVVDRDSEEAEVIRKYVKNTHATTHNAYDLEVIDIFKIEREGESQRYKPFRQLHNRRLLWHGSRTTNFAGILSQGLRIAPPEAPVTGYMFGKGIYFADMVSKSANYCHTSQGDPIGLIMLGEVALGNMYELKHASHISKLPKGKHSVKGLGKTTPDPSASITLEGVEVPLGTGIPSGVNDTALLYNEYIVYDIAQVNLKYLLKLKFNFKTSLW
Description: Inhibition of the DNA repair Poly (ADP-ribose) polymerase 1, in permeabilised L1210 murine leukemia cells

Compared with `Cc1cccc2c(O)nc(-c3ccc(C#N)cc3)nc12`, `COc1cccc2c(O)nc(-c3ccc(C#N)cc3)nc12` is 5-fold higher in IC50: 270 nM for the first, 1340 nM for the second. The first is the more potent here.

`COc1cccc2c(=O)n(C)c(C)nc12` and `Cc1nc2c(O)cccc2c(=O)n1C` cannot be ordered by IC50: over 100000 nM for the first, over 100000 nM for the second.

`Cc1cccc2c(=O)[nH]c(-c3ccc(O)cc3)nc12` and `COc1ccc(-c2nc3c(C)cccc3c(=O)[nH]2)cc1` are within 1.5-fold of each other in IC50: 220 nM for the first, 190 nM for the second.

Compared with `COc1cccc2c(=O)[nH]c(-c3ccc(N=[N+]=[N-])cc3)nc12`, `Cc1cccc2c(=O)[nH]c(-c3ccccc3)nc12` is 2.2-fold lower in IC50: 1930 nM for the first, 870 nM for the second.

`Nc1ccc(-c2nc(O)c3cccc(O)c3n2)cc1` and `Cc1cccc2c(O)nc(-c3ccc(N)cc3)nc12` are within 1.5-fold of each other in IC50: 320 nM for the first, 440 nM for the second.

Compared with `Cc1nc(O)c2cccc(C)c2n1`, `Cc1cccc2c(O)nc(-c3ccc(C(F)(F)F)cc3)nc12` is higher in IC50: 390 nM for the first, over 10000 nM for the second.

`COc1cccc2c(O)nc(-c3ccc([N+](=O)[O-])cc3)nc12` and `COc1cccc2c(O)nc(-c3ccc(N)cc3)nc12` cannot be ordered by IC50: 850 nM for the first, over 300 nM for the second.

Compared with `COc1cccc2c(O)nc(-c3ccc(C(F)(F)F)cc3)nc12`, `NC(=O)c1cccc(N)c1` [3-AMINOBENZAMIDE] is 2-fold lower in IC50: 39000 nM for the first, 19100 nM for the second.
